Assay results taken from DBAASP.
≈ marks a conversion by molar mass, not a printed value.

Experiments:
Assay in all cases: ≥ marks a high value that may be exact or a test limit, other limits are often not marked, values filed in µg/mL are converted to µM
[1] = system: Escherichia coli CIB 84492
[2] = system: Escherichia coli ATCC 25922
[3] = system: Staphylococcus aureus CIB 85462
[4] = system: Candida albicans CIB 45437
[5] = system: Staphylococcus aureus ATCC 25923
[6] = system: Escherichia coli ATCC 25726
[7] = system: Acinetobacter baumannii I NM8
[8] = system: Klebsiella pneumoniae ATCC 700603
[9] = system: Batrachochytrium dendrobatidis JEL-197
Escherichia coli AS1.349 = system: Escherichia coli AS1.349
[10] = system: Enterococcus faecium CGMCC 1.2334
[11] = system: Enterobacter cloacae CGMCC 1.58
Lactococcus lactis = system: Lactococcus lactis
[12] = system: Enterococcus faecalis CGMCC 1.595
[13] = system: Lactococcus lactis AS1.1690
Staphylococcus aureus = system: Staphylococcus aureus
[14] = system: Candida albicans CMCC 98001
[15] = system: Lactobacillus acidophilus CGMCC 1.1854
[16] = system: Streptococcus sanguinis CGMCC 1.2497
Bacillus cereus = system: Bacillus cereus
[17] = system: Streptococcus salivarius CGMCC 1.2498
[18] = system: Klebsiella pneumoniae subsp. pneumoniae CGMCC 1.176
[19] = system: Pseudomonas aeruginosa CGMCC 1.860
[20] = system: Escherichia coli ATCC 11775
[21] = system: Fusobacterium nucleatum CGMCC 1.2526
Bacillus cereus AS1.126 = system: Bacillus cereus AS1.126
Escherichia coli = system: Escherichia coli
[22] = system: Staphylococcus aureus ATCC 12600
[23] = system: Staphylococcus aureus AS1.72
[24] = system: Klebsiella aerogenes CGMCC 1.876
[25] = system: Streptococcus mutans CGMCC 1.2500
[26] = system: Enterobacter cloacae NHTCC 53001
[27] = system: Candida albicans ATCC 90028
[28] = system: Pseudomonas aeruginosa ATCC 27853
[29] = system: Klebsiella pneumoniae KK3 9904
[30] = system: Staphylococcus aureus NCTC 8325
[31] = system: Staphylococcus aureus ATCC 43300
[32] = system: Stenotrophomonas maltophilia CUN 3998-00
[33] = system: Bordetella bronchiseptica CUN 11844-99
[34] = system: Staphylococcus aureus CUN 3792-99
[35] = system: Acinetobacter baumannii ATCC 19606
[36] = system: Pseudomonas aeruginosa CUN 4158-02

## CC[C@H](C)[C@@H]1NC(=O)[C@H](C)NC(=O)[C@@H](NC(=O)[C@H](Cc2ccccc2)NC(=O)[C@@H](NC(=O)[C@@H](NC(=O)[C@@H]2CCCN2C(=O)[C@H](CC(C)C)NC(=O)[C@@H](NC(=O)[C@H](CC(N)=O)NC(=O)[C@H](C)NC(=O)[C@H](C)NC(=O)[C@@H](NC(=O)[C@H](CCCN=C(N)N)NC(=O)[C@@H](NC(=O)[C@@H](NC(=O)[C@H](C)NC(=O)[C@@H]2CCCN2C(=O)[C@H](CC(C)C)NC(=O)[C@@H](N)Cc2ccccc2)C(C)C)[C@@H](C)CC)C(C)C)C(C)C)[C@@H](C)O)C(C)C)CSSC[C@@H](C(=O)O)NC(=O)[C@H](CCCCN)NC(=O)[C@H](CCCCN)NC(=O)[C@H](CO)NC1=O [FLPAVIRVAANVLPTVFCAISKKC]
[1]
  MIC: 25 µM (≈ 64 µg/mL)
[2]
  MIC: 50 µM (≈ 128 µg/mL)
[3]
  MIC: 12.5 µM (≈ 32 µg/mL)
[4]
  MIC: ≥ 50 µM
[5]
  MIC: 6.25 µM (≈ 16 µg/mL)

## CC(C)C[C@H](NC(=O)CNC(=O)CNC(=O)[C@H](CCCCN)NC(=O)[C@H](C)NC(=O)[C@H](Cc1ccccc1)NC(=O)[C@H](CCCCN)NC(=O)[C@H](CCCCN)NC(=O)[C@H](CC(C)C)NC(=O)CNC(=O)[C@H](CCC(=O)O)NC(=O)[C@H](CC(C)C)NC(=O)[C@H](C)NC(=O)[C@H](CO)NC(=O)[C@H](CO)NC(=O)[C@H](Cc1c[nH]c2ccccc12)NC(=O)[C@H](Cc1ccccc1)NC(=O)CN)C(=O)N[C@@H](CCC(=O)O)C(=O)N[C@@H](C)C(=O)N[C@@H](CC(C)C)C(=O)N[C@H](C(=O)N[C@@H](CC(N)=O)C(=O)N1CCC[C@H]1C(=O)N[C@@H](CCCCN)C(=O)O)[C@@H](C)O [GFWSSALEGLKKFAKGGLEALTNPK]
[6]
  MIC: ≥ 50 µM
[7]
  MIC: 12.5 µM (≈ 33.1 µg/mL)
[8]
  MIC: > 50 µM
[5]
  MIC: > 100 µM

## CC[C@H](C)[C@H](NC(=O)CN)C(=O)N[C@@H](CC(C)C)C(=O)N[C@@H](CC(=O)O)C(=O)N[C@H](C(=O)N[C@@H](Cc1ccccc1)C(=O)N[C@@H](CCCCN)C(=O)NCC(=O)N[C@H](C(=O)N[C@@H](C)C(=O)N[C@@H](CCCCN)C(=O)NCC(=O)N[C@H](C(=O)N[C@@H](C)C(=O)N[C@@H](CCCCN)C(=O)N[C@@H](CC(=O)O)C(=O)N[C@@H](CC(C)C)C(=O)N[C@@H](C)C(=O)N[C@H](C(=O)N[C@@H](Cc1cnc[nH]1)C(=O)N[C@@H](CCSC)C(=O)N[C@@H](CC(C)C)C(=O)N[C@@H](CCC(=O)O)C(=O)N[C@@H](CC(N)=O)C(=O)N[C@@H](CC(C)C)C(=O)N[C@@H](CCCCN)C(=O)N[C@H]1CSSC[C@@H](C(=O)O)NC(=O)CNC(=O)[C@H]([C@@H](C)O)NC(=O)[C@H](CCSC)NC(=O)[C@H](CCCCN)NC1=O)C(C)C)C(C)C)C(C)C)[C@@H](C)O [GILDTFKGVAKGVAKDLAVHMLENLKCKMTGC]
[6]
  MIC: ≥ 50 µM
[9]
  MIC: ≥ 50 µM
[5]
  MIC: 100 µM (≈ 339 µg/mL)

## CC[C@H](C)[C@H](N)C(=O)N[C@@H](CC(C)C)C(=O)N1CCC[C@H]1C(=O)N[C@H](C(=O)N[C@@H](CC(C)C)C(=O)N[C@@H](CO)C(=O)N[C@@H](CC(C)C)C(=O)N[C@H](C(=O)NCC(=O)NCC(=O)N[C@@H](CC(C)C)C(=O)N[C@@H](CC(C)C)C(N)=O)[C@@H](C)CC)[C@@H](C)CC [ILPILSLIGGLL]
Escherichia coli AS1.349
  MIC: ≥ 125 µM
[10]
  MIC: ≥ 125 µM
[11]
  MIC: ≥ 250 µM
Lactococcus lactis
  MIC: ≥ 41 µM
[12]
  MIC: ≥ 125 µM
[13]
  MIC: ≥ 62.5 µM
Staphylococcus aureus
  MIC: 41 µM (≈ 50 µg/mL)
[14]
  MIC: ≥ 50 µM
[15]
  MIC: ≥ 37.5 µM
[16]
  MIC: ≥ 37.5 µM
Bacillus cereus
  MIC: ≥ 41 µM
[17]
  MIC: ≥ 75 µM
[18]
  MIC: ≥ 175 µM
[19]
  MIC: ≥ 125 µM
[20]
  MIC: ≥ 100 µM
[21]
  MIC: ≥ 75 µM
Bacillus cereus AS1.126
  MIC: ≥ 62.5 µM
Escherichia coli
  MIC: > 100 µM
[22]
  MIC: ≥ 100 µM
[23]
  MIC: ≥ 62.5 µM
[24]
  MIC: ≥ 250 µM
[25]
  MIC: ≥ 50 µM

## CC[C@H](C)[C@@H]1NC(=O)[C@H](CCCCN)NC(=O)[C@@H](NC(=O)[C@H](CCCCN)NC(=O)[C@H](C)NC(=O)[C@H](CCC(N)=O)NC(=O)[C@H](CC(=O)O)NC(=O)[C@H](CC(C)C)NC(=O)[C@H](CC(C)C)NC(=O)[C@H](CO)NC(=O)CNC(=O)CNC(=O)[C@@H](NC(=O)[C@H](CC(N)=O)NC(=O)[C@H](CCCCN)NC(=O)[C@H](Cc2ccccc2)NC(=O)[C@@H](NC(=O)[C@H](Cc2cnc[nH]2)NC(=O)[C@H](CCCCN)NC(=O)CNC(=O)[C@H](C)NC(=O)[C@@H](NC(=O)[C@H](CCCCN)NC(=O)[C@H](CC(C)C)NC(=O)[C@@H](NC(=O)CNC(=O)[C@H](CCCCN)NC(=O)[C@@H](NC(=O)[C@@H](NC(=O)[C@H](CO)NC(=O)[C@H](CCSC)NC(=O)[C@H](CC(C)C)NC(=O)CN)C(C)C)[C@@H](C)O)C(C)C)[C@@H](C)O)[C@@H](C)CC)C(C)C)CSSC[C@@H](C(=O)O)NC(=O)[C@H](CCC(N)=O)NC(=O)CNC(=O)[C@H](CO)NC1=O [GLMSVTKGVLKTAGKHIFKNVGGSLLDQAKCKISGQC]
[26]
  MIC: 6 µM (≈ 22.9 µg/mL)
[2]
  MIC: 3 µM (≈ 11.4 µg/mL)
[27]
  MIC: ≥ 100 µM
[28]
  MIC: 6 µM (≈ 22.9 µg/mL)
[29]
  MIC: 12 µM (≈ 45.8 µg/mL)
[30]
  MIC: 25 µM (≈ 95.4 µg/mL)

## NCCCC[C@H](NC(=O)CNC(=O)[C@H](CCCCN)NC(=O)[C@H](Cc1ccccc1)NC(=O)[C@H](CCCCN)NC(=O)[C@H](Cc1c[nH]c2ccccc12)NC(=O)[C@H](Cc1ccccc1)NC(=O)[C@H](CCCN=C(N)N)NC(=O)[C@H](CCCN=C(N)N)NC(=O)[C@H](Cc1ccc(O)cc1)NC(=O)[C@H](CCCCN)NC(=O)[C@H](CCCCN)NC(=O)CN)C(=O)N[C@@H](Cc1c[nH]c2ccccc12)C(=O)N[C@@H](Cc1ccccc1)C(=O)N[C@@H](Cc1c[nH]c2ccccc12)C(=O)N[C@@H](Cc1ccccc1)C(=O)N[C@@H](Cc1c[nH]c2ccccc12)C(=O)NCC(N)=O [GKKYRRFWKFKGKWFWFWG]
[2]
  MIC: 388 µM (≈ 1020 µg/mL)
[31]
  MIC: 6.06 µM (≈ 16 µg/mL)
[32]
  MIC: 24.3 µM (≈ 64 µg/mL)
[28]
  MIC: 3.03 µM (≈ 8 µg/mL)
[33]
  MIC: 3.03 µM (≈ 8 µg/mL)
[34]
  MIC: 6.06 µM (≈ 16 µg/mL)
[35]
  MIC: 6.06 µM (≈ 16 µg/mL)
[5]
  MIC: 388 µM (≈ 1020 µg/mL)
[36]
  MIC: 12.1 µM (≈ 32 µg/mL)
